These results are taken from ChEMBL document CHEMBL1764954, “Activation of the G-protein-coupled receptor 119: a conformation-based hypothesis for understanding agonist response” (J Med Chem, 2011).

The nature of series [1]: Aqueous solubility of the compound. The series is classed as physicochemical. The conditions noted are these: aqueous medium.
Series [2] concerns Rattus norvegicus. Briefly: Hypoglycemic activity in overnight fasted Wistar rats assessed as decrease in glucose AUC at 5 and 50 mg/kg, po by oral glucose tolerance test. The series is classed as functional, organism-based. Also noted: dose 50 mg/kg.
Series [3] concerns Rattus norvegicus. Kind of series: Increase in GLP1 level in overnight fasted Wistar rats at 5 and 50 mg/kg, po. The series is classed as functional, organism-based. Also noted: dose 50 mg/kg.
The nature of series [4]: Solubility of the compound in gastric fluid at pH 1.2. In kind it is physicochemical. The note with it: simulated gi fluid.

Molecules are shown by their SMILES. Converted amounts (≈) assume the structure as drawn. The source made the active and inactive calls. The rule behind the calls is not given here.

For `Cc1ncccc1Oc1ncnc(OC2CCN(C(=O)OC(C)C)CC2)c1C`, the solubility – broadly, how much of the substance goes into solution per volume – in series [1] is more than 40 mg/mL.
In the case of `Cc1ncccc1Oc1ncnc(OC2C3COCC2CN(C(=O)OC(C)C)C3)c1C` (stereo in doubt; 8) [listing 1 of 2 here], the outcome in series [2] and in series [3] was Active.
`Cc1ncccc1Oc1ncnc(OC2C3COCC2CN(C(=O)OC(C)C)C3)c1C` (stereo in doubt; 9) gave a solubility in series [4] of more than 66 mg/mL.
As to `Cc1ncccc1Oc1ncnc(OC2C3COCC2CN(C(=O)OC(C)C)C3)c1C` (stereo in doubt; 8) [listing 2 of 2 here], in series [4], the solubility is 8.6 mg/mL (≈ 20.1 mM).
